Source: patent publication US20030188344A1 (priority 2000, published 2003)
“Also recorded” adds a separate entry of the source.

Key:
physchem = type: physicochemical; details: buffer
Description: Curiously, 1 appears the most hydrolytically labile of this class of structures, with a measured t1/2<4 hr at pH 5.5, and […] at pH 7. […] Moreover, from estimates of the surface area per seedling, the concentration of 1 around the radicle of one-week-old maize seedlings should be between […] and 10 mM, depending on whether a 10 μ or a 100 μ volume element is used to define the surface hydration. […] This inhibitory zone readily explains the observed difficulty transforming this organ with the bacterium.

occ regulon = occ regulon induction (specificity control); type: cell-based, A. tumefaciens; details: same plasmid; data not shown
vir gene expression = vir gene expression inhibition, β-galactosidase (lacZ under vir promoter); type: cell-based, A. tumefaciens
Description: Vir Induction Assay. A. tumefaciens strains were grown overnight at 27° C. to an OD of 0.3-0.6 in LB medium supplemented with appropriate antibiotics. Cells were then pelleted by centrifugation and resuspended to an OD of 0.1 per ml in sterilized induction medium (ABIM, pH 5.5) supplemented with either 1% glucose or 1% glycerol. The various inducer and Inhibitor compounds tested were dissolved in a minimal amount of DMSO in water as mM stocks, and diluted with ABIM to the desired concentration (final DMSO concentration was no greater than 0.1%). The bacteria were incubated with at 28° C. for 8-16 hr and subsequently assayed for β-galactosidase activity by the method of Miller (1986). IC50 values for the Inhibitors evaluated were estimated from such dose response plots. Each assay value reported is the mean of three replicates; error bar indicates one standard deviation from the mean. Data are representative of three similar independent studies.
The capacity of 1 to inhibit vir gene expression was tested by monitoring β-galactosidase activity in an A. tumefaciens strain carrying wild-type vir induction genes and a lacZ gene under the control of a vir promoter (Hess et al., 1991). […] A more precise test for specificity was available via the utilization of a plasmid containing a virA gene, the putative AS receptor, which contitutively expressed the vir genes in the absence of AS. […] Therefore, the inhibition by 1 occurs upstrean, of VirA activation.

[1] = test system: leaf explants of Nicotiana tabacum cv Havana 425; assay: tobacco leaf tumor (virulence) assay
Description: Virulence Assays The capacity of various strains of A. tumefaciens to induce tumors on leaf explants of Nicotiana tabacum cv Havana 425 was tested as described previously. Banta et al., 1994.
In this assay, bacteria and leaf explants are co-cultivated for two days at varying levels of AS and then transferred to antibiotic containing medium that stops bacterial growth but allows plant tumor growth. Banta et al., 1994. In the case of wild-type strain A348, some tumor formation is observed on the leaf explants co-cultivated in the absence of AS in the co-cultivation, as expected because of xenognostic phenols released from the wounded cells (FIG. 10). […] Importantly, the maximum number of tumors formed by both the wild-type strain and AB140 was approximately the same, consistent with the observation that AB140's hypersensitivity is not a result of simple overexpression of the vir genes.

VirB10 expression = assay: VirB10 immunoblot; type: cell-based, A. tumefaciens
Description: Immunoblot. Cultures of different strains were induced overnight in ABIM containing 1% glycerol and 0.1% arabinose and varying phenolic concentrations. Samples from each culture, containing an equivalent OD600, were denatured by boiling in sample buffer for 3-10 minutes, and 10 μL from each sample was loaded onto 10% acrylamide gels and separated via SDSpolyacrylamide gel electrophoresis (PAGE). Proteins were transferred from the acrylamide gel to nitrocellulose purchased from Schleicher and Schell (Keene, N. H.) by electrotransfer. VirB 10 expression was examined using immunoblot procedures and antibodies described in Beaupre et al., 1997.

[2] = test system: VirA expression by native PvirA; details: with AS induction; cited from earlier work
[3] = test system: vir gene expression in hypersensitive mutants (AB140, AB147); assay: vir induction assay, β-galactosidase reporter, phenol hypersensitive mutants; type: cell-based, A. tumefaciens; details: for vir inducing activity / hypersensitivity in mutants: hypersensitive mutants, e.g. AB140, versus wild-type
Description: (§1) vir Induction Assay. A. tumefaciens strains were grown overnight at 27° C. to an optical density of about 0.3-0.6 at 600 nm (OD600) in LB medium supplemented win appropriate antibiotics. Cells were then pelleted by centrifugation and resuspended to an OD600 of 0 1 per ml in sterilized induction medium (ABIM. pH 5.5) supplemented with either 1% glucose or 1% glycerol with or without 0.1% arabinose (w/v). The verious phenolic compounds tested were dissolved in a minimal amount of DMSO in water as mM stocks, and diluted with ABIM to the desired concentration (final DMSO concentration was no greater than 0.1%). The bacteria were incubated with at 28° C. for 8-16 hours and subsequently assayed for β-galactosidase activity by the method of Miller, 1972. ED50 values for the inducers evaluated were estimated from such dose response plots. Each assay value reported is the mean of three replicates; error bar indicates one standard deviation from the mean. Data are representative of three similar independent experiments.
To ensure that the mutants hypersensitive to AS were a result of a change in the vir gene induction pathway rather than a mutation in the reporter plasmid pAC2, other methods to analyze vir gene induction and the virulence response were investigated. First, all nine mutants were transformed with pSW209 carrying a virB::lacZ reporter construct. The β-galactosidase activities of all strains were hypersensitive in an AS dose-response study. The observed changes are not due to some artifact of the reporter plasmids as the expression of VirB10, one of the proteins of the virB operon on its Ti plasmid, in cells of AB140 was detectable after induction with 0.3 μM AS. Wild-type cells required 1 μM AS to produce detectable VirB10. Thus, the mutants are hypersensitive to AS when assaying either the virB^P/nptII reporter, the virB::lacZ reporter, or directly assaying expression of VirB10 from the native viral promoter on the Ti plasmid.

[4] = test system: A. tumefaciens strain A348/pAC2 and AB140/pAC2; assay: kanamycin resistant growth with pAC2 (virB promoter/nptII); type: cell-based; details: for survival on induction plates plus kanamycin: A348/pAC2, 40 μg/ml kanamycin; for kanamycin resistant growth of AB140 compared with wild-type (inducer sensitivity): liquid medium, AB140/pAC2 vs A348/pAC2 (FIG. 9)
Description: Mutant Selection. […] Phenolic hypersensitive mutants were selected as follows. Individual colonies of A348/pAC2 were grown overnight in LB broth plus spectinomycin, and the progeny from each colony kept separate to ensure that each mutation was an individual event, not part of a clonal population. The bacteria were subsequently washed in ABIM medium, resuspended to an OD600 of approximately 0.1 and induced overnight in ABIM media plus 100 μM AS. The next day the cells had grown to an approximate OD600 of 1.0 and 2×10^5 to 2×10^6 bacteria were plated onto plates confining ABIM medium containing 10 μM AS and 40 μg/ml kanamycin. Colonies that grew on this selection medium were subsequently assayed for growth on plates containing kanamycin but no phenolic. Colonies that grew under these conditions are constitutive for kanamycin resistance and were not characterized further, while colonies that couldn't survive in this screen were characterized further.
The kanamycin resistance test of selected colonies in response to different doses of phenol was done in the following manner: after one night of induction in ABIM over a range of inducer concentrations, as described above, the bacteria were washed and subcultured into ABIM at a starting OD600 of approximately 0.1. The ABIM included phenolics at a range of concentrations between 0.1-1000 μM. At each concentration of inducer three cultures have kanamycin at a concentration of 20 μg/mL, while one culture has no kanamycin. After overnight culture the OD600 is determined and kanamycin resistant growth as a percentage of control is determined using the following calculation: [formula]

[5] = test system: vir gene expression in wild-type strain A348; assay: vir induction assay, β-galactosidase reporter, wild-type strain; type: cell-based, A. tumefaciens; details: wild-type A348/pSW209
Description: as §1

In the case of `COc1ccc2c(c1)OC(O)C(=O)N2OC` (centres unmarked) [compound 1], the half-life (physchem; pH 5.5) was < 240 min, the half-life (physchem; pH 7) was ~10 min and the “effect on induction of the occ regulon” value (occ regulon) was “unaffected”. For the same compound, the “actual IC50” value (vir gene expression; based on decomposition rates during the 8 hr assay period) was “nanomolar range”, the “inhibition of vir gene expression (β-galactosidase activity)” value (vir gene expression; expression induced by 100 uM acetosyringone, wild-type vir induction genes) was “strongly inhibits” and the “effect on constitutively activated VirA strain (FIG. 2)” value (vir gene expression; virA G665D expressing vir genes in the absence of AS) was “functions independently”.

With `COc1cc(C(C)=O)cc(OC)c1O` [AS, Acetosyringone] the “AS concentration for maximal capacity to induce tumors, relative to wild-type” value ([1]; hypersensitive mutant AB140 (FIG. 10)) was “log order lower concentration”, the “number of tumors formed per infected leaf explant” value ([1]; wild-type strain A348, increasing phenol in co-cultivation medium (FIG. 10)) was “significantly increased” and the “AS concentration giving detectable VirB10” value (VirB10 expression; cells of AB140) was 0.3 µM. For the same compound, the “AS concentration required to produce detectable VirB10” value (VirB10 expression; wild-type cells) was 1 µM, the “induction of VirA expression by native PvirA” value [2] was ~8 fold and the “sensitivity to AS compared with wild-type strain A348” value ([3]; AB140, 0.1% arabinose present in induction medium) was “increased”. The “AS concentration for response compared with wild-type” value ([3]; AB147 class, absence of arabinose) was “half-log lower concentration”, the “vir inducing activity / hypersensitivity in mutants” value [3] was “hypersensitive” and the “survival on induction plates plus kanamycin” value ([4]; 30 μM AS) was “killed”. The “survival on induction plates plus kanamycin” value ([4]; 100 μM AS) was “survive” and the “kanamycin resistant growth of AB140 compared with wild-type (inducer sensitivity)” value [4] was “one-half log lower concentration”.

With `COc1ccc2[nH]c(=O)oc2c1` [6-methoxy-2H-benzoxazolin-2(3H)-one] the “activity of decomposition product” value (vir gene expression; under the assay conditions) was “inactive”.

In the case of `COC(=O)/C=C/c1cc(OC)c2c(c1)C(C(=O)OC)C(c1ccc(O)c(OC)c1)O2` [(2R,3R)-(−)-trans-DDF, trans-dehydroferulate dimethylester, reference compound], the “vir inducing activity (virB::lacZ β-galactosidase)” value [5] was “all the inducing activity of the racemic mixture” and the “vir inducing activity (virB::lacZ β-galactosidase)” value ([5]; listed as (−)-trans-DDF) was “active”.

For `COc1cc([C@@H]2C[C@H]2CO)ccc1O` (relative stereo) [(+)-trans-CP, trans-[3-(4-Hydroxy-3-methoxy-phenyl)-cyclopropyl]methanol], the “vir inducing activity / hypersensitivity in mutants” value [3] was “all the inducing activity of the racemate” and the “vir inducing activity (virB::lacZ β-galactosidase)” value [5] was “virtually all the activity of the trans racemate; also recorded: active”.

In the case of `COc1cc(C2CC2CO)ccc1O` (stereo not drawn) [cis-CP], the “vir inducing activity (virB::lacZ β-galactosidase)” value [5] was “equivalent activity”.

For `COc1cc(C(C)=O)ccc1O` [AV, acetovallinone], the “kanamycin resistant growth of AB140 compared with wild-type (inducer sensitivity)” value [4] was “not hypersensitive”.

With `COc1cc2c(cc1O)CCC2=O` [Z-indanone, 5-hydroxy-6-methoxy-1-indanone] the “vir inducing activity (virB::lacZ β-galactosidase)” value [5] was “equivalent activity”.

For `COc1cc2c(c(OC)c1O)CCC2=O` [D-indanone, 5-hydroxy-4,6-dimethoxyindanone], the “vir inducing activity / hypersensitivity in mutants” value [3] was “hypersensitive” and the “vir inducing activity (virB::lacZ β-galactosidase)” value [5] was “little changed”.

In the case of `COc1c(O)ccc2c1CCC2=O` [E-indanone, 5-hydroxy-4-methoxy-1-indanone], the “vir inducing activity / hypersensitivity in mutants” value [3] was “hypersensitive” and the “vir inducing activity (virB::lacZ β-galactosidase)” value [5] was “equivalent activity”.
